Common to all, as to assay: NCI anticancer screen, dose series, 48 h
The subject of test [1] is 786-0.
In test [2] the test system is A498.
Test [3] has as its system BT-549.
The test system of test [4] is CAKI-1.
The subject of test [5] is COLO 205.
Test [6] deals with EKVX.
The test system of test [7] is HL-60.
Test [8] concerns HOP-92.
For test [9], the system named is IGROV-1.
In test [10] the test system is M14.
In test [11] the test system is MDA-MB-231.
Test [12] deals with MDA-MB-435.
The subject of test [13] is NCI-H226.
Test [14] relates to NCI-H522.
Test [15] has as its system OVCAR-4.
Test [16] deals with SF-539.
Test [17] relates to SK-MEL-5.
Test [18] concerns SK-OV-3.
Test [19] deals with SNB-19.
The test system of test [20] is U-251.

Structures are written as SMILES.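 The compound was tested at five concentrations on cells cultured in 96-well plates, with a 48-hour exposure period. Here, GI50 denotes the concentration required for 50% inhibition of growth.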 Active and inactive are the calls of the source. Rule as the data show it: active = GI50 up to about 1.1 µM and inactive = higher.

With `Cn1c(=O)c2[nH]c(CCC(=O)O)nc2n(C)c1=O`, the GI50 in [1], in test [2], in [3], in test [4], in test [5] and in [6] was > 100 µM (inactive) each time. In addition, the GI50 in test [7], in test [8], in test [9], in test [10], in [11] and in [12] was > 100 µM (inactive) each time. Also, the GI50 in [13], in test [14], in test [15], in test [16], in [17] and in test [18] was > 100 µM (inactive) each time. Also, the GI50 in test [19] and in test [20] was > 100 µM (inactive) throughout.

With `O=C(O)c1ccccc1NC(c1ccccc1)c1ccc2cccnc2c1O` (stereo not given), the GI50 in [1] was 4.39 µM (inactive); in [2] it was 24.6 µM (inactive); in [3], 11 µM (inactive); in test [4] it was 9.44 µM (inactive); in test [5], 15.7 µM (inactive); in test [6], 6.18 µM (inactive). The GI50 in [7] was 1.2 µM (inactive); in test [8], 26.9 µM (inactive); in test [9], 20.4 µM (inactive); in test [10], 5.81 µM (inactive); in test [11], 12.1 µM (inactive); in test [12], 14.8 µM (inactive). The GI50 is 4.27 µM (inactive) in test [13]; 3.97 µM (inactive) in test [14]; 5.78 µM (inactive) in test [15]; 5.14 µM (inactive) in test [16]; 8.39 µM (inactive) in [17]; 16.8 µM (inactive) in [18]. Besides, the GI50 is 5.24 µM (inactive) in test [19] and 4.08 µM (inactive) in test [20].

Regarding `COC(=O)c1ccc(C)cc1C1CN=NC12Cc1cc(C)ccc1C2=O` (stereo not given), the GI50 in test [1] was 21.3 µM (inactive); in test [2] it was 12.1 µM (inactive); in test [3], 15.3 µM (inactive); in [4] it was 11.8 µM (inactive); in test [5], 6.44 µM (inactive); in test [6], 23.4 µM (inactive). Moreover, the GI50 was 3.58 µM (inactive) in test [7]; 21.7 µM (inactive) in test [8]; 8.85 µM (inactive) in [9]; 9.31 µM (inactive) in test [10]; 14 µM (inactive) in test [11]; 2.18 µM (inactive) in [12]. The GI50 in test [13] was 21.2 µM (inactive); in [14] it was 5.06 µM (inactive); in test [15], 26.2 µM (inactive); in test [16] it was 13.9 µM (inactive); in test [17] it was 8.28 µM (inactive); in test [18] it was 23.2 µM (inactive). Also, the GI50 is 18.8 µM (inactive) in test [19] and 11.7 µM (inactive) in [20].

Take `CS/C(=N\Nc1cnc2ccccc2n1)NS(=O)(=O)c1cc(C)c(Cl)cc1Cl`: the GI50 in test [1] was > 100 µM (inactive); in test [2] it was 43.3 µM (inactive); in [3], > 100 µM (inactive); in test [4], 53.5 µM (inactive); in test [5], > 100 µM (inactive); in test [6], 29 µM (inactive). Also, the GI50 is 88.7 µM (inactive) in test [7]; 15.5 µM (inactive) in [8]; 21.1 µM (inactive) in test [9]; > 100 µM (inactive) in test [10]; 44.2 µM (inactive) in test [11]; > 100 µM (inactive) in test [12]. Besides, the GI50 in [13], in test [14], in [15], in [16], in test [17] and in [18] was > 100 µM (inactive) throughout. Also, the GI50 in test [19] and in test [20] was > 100 µM (inactive) throughout.

As for `C[C@H]1CCC/C=C/[C@@H]2C[C@H](OC(=O)CN(C)C)C[C@H]2[C@H](O)/C=C/C(=O)O1`, the GI50 in test [1] is 0.0462 µM (active); in test [2] it was 0.083 µM (active); in [3], 0.232 µM (active); in test [4], 0.161 µM (active); in [5] it was 0.0476 µM (active); in test [6], 0.188 µM (active). For the same compound, the GI50 was 0.22 µM (active) in [7]; 1.03 µM (active) in test [8]; 0.57 µM (active) in test [9]; 0.0778 µM (active) in [10]; 0.0152 µM (active) in test [11]; 0.157 µM (active) in [12]. The GI50 in [13] is 0.0288 µM (active); in test [14], 0.425 µM (active); in test [15], 0.154 µM (active); in test [16], 0.148 µM (active); in test [17], 0.0395 µM (active); in test [18], 0.0586 µM (active). Also, the values for the GI50 in test [19] and in test [20] were 0.319 µM (active) and 0.254 µM (active), respectively.

With `COc1cccc2c1C(=O)c1c(O)c3c(c(O)c1C2=O)C[C@@](O)(C(C)=O)C[C@@H]3OC1CC(N(Cc2ccccc2)Cc2ccccc2)C(O)C(C)O1` (stereo not given in full), the GI50 in test [1] is 0.713 µM (active); in [2], 28.5 µM (inactive); in test [3] it was > 27.5 µM (inactive); in [4] it was 6.03 µM (inactive); in test [5] it was 14.6 µM (inactive); in test [6], 39.4 µM (inactive). For the same compound, the GI50 in test [7] was 9.55 µM (inactive); in test [8], 17.8 µM (inactive); in [9] it was 9.55 µM (inactive); in [10], 2.27 µM (inactive); in test [11], 10.9 µM (inactive); in test [12], 4.53 µM (inactive). Moreover, the GI50 in test [13] is 13.1 µM (inactive); in test [14], 10.4 µM (inactive); in [15], 15.1 µM (inactive); in [16], 10.9 µM (inactive); in test [17] it was 14.6 µM (inactive); in test [18], 34 µM (inactive). The GI50 in test [19] was 21.7 µM (inactive); in test [20] it was 13.4 µM (inactive).

As for `Brc1ccc2[nH]cc([C@H]3CN[C@@H](c4c[nH]c5ccc(Br)cc45)CN3)c2c1`, the GI50 is 2.29 µM (inactive) in [1]; 2 µM (inactive) in [2]; > 41.1 µM (inactive) in [3]; 1.82 µM (inactive) in [4]; 1.73 µM (inactive) in test [5]; 2.61 µM (inactive) in [6]. For the same compound, the GI50 in [7] is 1.77 µM (inactive); in test [8], 1.87 µM (inactive); in test [9], 1.87 µM (inactive); in [10], 1.81 µM (inactive); in [11] it was 1.62 µM (inactive); in test [12] it was 1.77 µM (inactive). For the same compound, the GI50 in [13] was 2.45 µM (inactive); in [14] it was 1.79 µM (inactive); in [15], 1.94 µM (inactive); in test [16] it was 2 µM (inactive); in test [17], 2.56 µM (inactive); in [18], 2.49 µM (inactive). The GI50 is 2.83 µM (inactive) in [19] and 2.12 µM (inactive) in test [20].

As for `Cc1cc(-c2nc3ccc(F)cc3s2)ccc1NC(=O)[C@H](C)N`, the GI50 in test [1] is 4.66 µM (inactive); in test [2] it was 9.02 µM (inactive); in test [3], 13.7 µM (inactive); in [4], 8.18 µM (inactive); in [5], 9.77 µM (inactive); in test [6] it was 8.38 µM (inactive). Further, the GI50 in [7] was 2.07 µM (inactive); in [8], 10.7 µM (inactive); in [9] it was 2 µM (inactive); in [10], 1.95 µM (inactive); in test [11], 10.4 µM (inactive); in [12], 2.49 µM (inactive). The GI50 was 2.7 µM (inactive) in test [13]; 7.74 µM (inactive) in test [14]; 10.2 µM (inactive) in test [15]; 6.32 µM (inactive) in test [16]; 12.9 µM (inactive) in [17]; 13.6 µM (inactive) in [18]. For the same compound, the GI50 in [19] is 14.3 µM (inactive); in [20], 3.48 µM (inactive).

On to `CO[C@H]1C[C@H](O[C@H]2CC[C@]3(C=O)[C@H]4CC[C@]5(C)[C@@H](C6=CC(=O)OC6)CC[C@]5(O)[C@@H]4CC[C@]3(O)C2)O[C@H](C)[C@H]1O[C@@H]1O[C@H](CO[C@@H]2O[C@H](CO)[C@@H](O)[C@H](O)[C@H]2O)[C@@H](O)[C@H](O)[C@H]1O`, for which the GI50 in test [1] is 0.0272 µM (active); in [2] it was 0.0891 µM (active); in [3] it was 0.039 µM (active); in test [4], 0.0223 µM (active); in test [5] it was 0.103 µM (active); in test [6] it was 0.0205 µM (active). The GI50 in test [7] was 0.0361 µM (active); in test [8], 0.0845 µM (active); in [9], 0.0259 µM (active); in test [10], 0.147 µM (active); in [11], 0.355 µM (active); in [12] it was 0.166 µM (active). Besides, the GI50 is 0.171 µM (active) in [13]; 0.0139 µM (active) in test [14]; 0.0281 µM (active) in test [15]; 0.0353 µM (active) in test [16]; 0.037 µM (active) in test [17]; 0.0543 µM (active) in test [18]. Also, the GI50 is 0.186 µM (active) in test [19] and 0.0658 µM (active) in [20].

These data come from ChEMBL document CHEMBL1201862, “PubChem BioAssay data set” (2004).
